Results on 2 compounds are retold here after PMC5036617 (Toxicological Sciences, 2016).

One series concerns androgen receptor. Details: method as in Shet et al., 1997. The conditions noted are these: metabolite compared with parent compound; ref Shet et al., 1997; cited from earlier work.
For a further series, the system named is HepG2 cells. The series is described as follows: Mitochondrial stress test, OCR analysis (Seahorse XFe96). The class given is cell-based. The conditions noted are these: for basal respiration / maximal respiration: glucose medium, 7.8–500 µM; for basal respiration / maximal respiration / ATP-linked OCR as a percentage of maximal respiration / proton leak as a percentage of maximal respiration / spare respiratory capacity as a percentage of maximal respiration: vs vehicle control. On the procedure:
HepG2 cells were collected by trypsinization and seeded on a collagen-coated XF 96-well cell culture microplate (25 000 cells/100 µl medium/well) and incubated overnight in glucose medium (37 °C, 5% CO2). All assays used ≤ 0.5% DMSO as a vehicle control. Cells were incubated for 1 h (37°C, 0% CO2) before culture medium was replaced by 175 µl of unbuffered Seahorse XF Base medium supplemented with glucose (25 mM), L-glutamine (2 mM), sodium pyruvate (1 mM), pre-warmed to 37 °C (pH 7.4). Prior to measurement of OCR, the Seahorse XFe96 instrument gently mixed the assay medium in each well for 10 min to enable the oxygen partial pressure to reach equilibrium. […] There were 9 OCR measurement cycles following compound injection and each measurement cycle consisted of a 3 min mix and 3 min measure. […] After stress test compound injections there were 3 measurement cycles before the injection of the next stress test compound. This enabled the calculation of basal respiration (OCR prior to oligomycin injection—non-mitochondrial OCR), proton leak (OCR after oligomycin injection—non-mitochondrial OCR), ATP-linked OCR (basal respiration—proton leak—non-mitochondrial OCR), maximal respiration (first injection after FCCP injection—non-mitochondrial OCR) and spare respiratory capacity (maximal respiration—basal respiration) (Figure 2).  FIG. 2 Representative control mitochondrial stress test trace. Mitochondrial stress test assays consisted of a series of compound injections into the cell culture microplate. […] Remaining injections consisted of oligomycin (ATP synthase inhibitor), FCCP (OXPHOS uncoupler), and rotenone/antimycin A (complex I and III inhibitors, respectively) with each followed by 3 measurement cycles. This series of manipulations enabled the calculation of parameters: basal, ATP-linked, maximum, and non-mitochondrial OCR, as well as proton leak. Each measurement cycle was a total of 6 min. Following completion of OCR assays, medium was removed from all wells and 20 µl of somatic cell ATP releasing agent was added to each well before shaking for 1 min and transfer of 10 µl of lysate to a 96-well plate and performance of a BCA assay according to the manufacturer’s instructions. Protein content per well was used to normalize OCR.

For series [1] the following is noted: ref Chu et al., 1998; Wysowski and Fourcroy, 1996; cited from earlier work.

As for `CC(C)(O)C(=O)Nc1ccc([N+](=O)[O-])c(C(F)(F)F)c1` [2-hydroxyflutamide], in the series with androgen receptor, the “androgen receptor binding affinity” value is on record as “higher androgen receptor binding affinity than its parent compound”. Further, in the series on HepG2 cells, the basal respiration result is listed as “significant decrease” and the maximal respiration entry is recorded as “significant decrease”. For the same compound, in the series with HepG2 cells (up to 500 µM), the “ATP-linked OCR as a percentage of maximal respiration” value is recorded as “significant decrease”, the “proton leak as a percentage of maximal respiration” value was “significant increase” and the “spare respiratory capacity as a percentage of maximal respiration” value was “significant decrease”.
Consider `CC(C)C(=O)Nc1ccc([N+](=O)[O-])c(C(F)(F)F)c1` [Flutamide], for which the “cases of hospitalization or death (idiosyncratic DILI) in treated patients” value in series [1] was 0.03%. Further, in the series on HepG2 cells, the basal respiration result is on record as “significant decrease” and the maximal respiration entry is on record as “significant decrease”. In the series with HepG2 cells (up to 500 µM), the “OCR upon compound injection, mitochondrial stress test” value is reported as “immediate concentration-dependent reduction in OCR”; the “ATP-linked OCR as a percentage of maximal respiration” value is given as “significant decrease”; the “proton leak as a percentage of maximal respiration” value is on record as “significant increase”; the “spare respiratory capacity as a percentage of maximal respiration” value is listed as “significant decrease”.
